Our source for the IC50 values is US20240226115A1, “AXL INHIBITOR COMPOUNDS” (ARCUS BIOSCIENCES, INC., priority 2021, published 2024).

For one assay, the target named is T1, recombinant human MER (Homo sapiens, UniProt Q12866).
T1 construct: purchased Invitrogen
T1 sequence (Q12866 21-999): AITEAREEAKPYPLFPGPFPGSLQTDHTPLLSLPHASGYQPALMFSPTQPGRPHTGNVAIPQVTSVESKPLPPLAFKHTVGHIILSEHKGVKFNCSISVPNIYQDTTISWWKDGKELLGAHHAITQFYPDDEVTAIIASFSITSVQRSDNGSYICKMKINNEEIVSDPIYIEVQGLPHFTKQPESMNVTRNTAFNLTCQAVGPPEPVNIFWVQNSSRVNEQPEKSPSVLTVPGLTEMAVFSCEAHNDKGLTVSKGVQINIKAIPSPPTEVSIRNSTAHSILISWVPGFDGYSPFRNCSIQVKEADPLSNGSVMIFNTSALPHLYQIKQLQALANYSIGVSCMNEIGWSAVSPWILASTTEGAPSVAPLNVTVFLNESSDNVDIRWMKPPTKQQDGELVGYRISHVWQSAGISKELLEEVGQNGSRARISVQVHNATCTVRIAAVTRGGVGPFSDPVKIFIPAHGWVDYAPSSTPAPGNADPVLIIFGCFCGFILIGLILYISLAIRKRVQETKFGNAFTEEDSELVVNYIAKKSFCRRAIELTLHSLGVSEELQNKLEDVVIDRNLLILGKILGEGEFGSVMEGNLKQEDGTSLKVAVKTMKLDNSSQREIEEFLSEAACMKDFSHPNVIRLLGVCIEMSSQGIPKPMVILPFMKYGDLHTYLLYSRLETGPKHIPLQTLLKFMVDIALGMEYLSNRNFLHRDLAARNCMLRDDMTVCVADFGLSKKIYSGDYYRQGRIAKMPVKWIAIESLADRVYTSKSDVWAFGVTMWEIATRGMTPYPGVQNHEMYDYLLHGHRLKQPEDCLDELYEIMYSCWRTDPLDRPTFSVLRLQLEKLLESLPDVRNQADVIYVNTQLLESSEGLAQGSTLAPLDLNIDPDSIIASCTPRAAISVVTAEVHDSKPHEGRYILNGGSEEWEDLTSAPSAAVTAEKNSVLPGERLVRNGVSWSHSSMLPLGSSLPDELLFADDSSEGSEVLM
As to the kind of experiment: HTRF KinEASE-TK biochemical potency, MER. The note with it: 1 nM MER, 700 μM ATP. The protocol: (§1) Purified recombinant human AXL, TYRO3 and MER proteins were purchased from Invitrogen™. 10 nM AXL, 2 nM TYRO3 or MER were incubated with varying concentrations of compounds in 50 mM HEPES, pH 7.4, 10 mM MgCl2, 0.01% BSA, 1 mM DTT and 2% DMSO in a total volume of 20 μl in a 384-well microplate (Corning™ #3640) at RT for 1 h. The AXL, TYRO3 and MER enzymatic reaction was initiated by transferring 10 μl of enzyme and compound mixture into 10 μl of 1.6 μM TK Substrate-biotin (HTRF® KinEASE-TK kit, Cisbio) and 1400 μM ATP pre-incubated in 50 mM HEPES, pH 7.4, 10 mM MgCl2, 0.01% BSA, 1 mM DTT in a 384-well microplate (Corning™ #3640) at RT, giving the final reaction conditions: 5 nM AXL, 1 nM TYRO3 or MER, 800 nM TK Substrate-biotin and 700 μM ATP in 50 mM HEPES, pH 7.4, 10 mM MgCl2, 0.01% BSA, 1 mM DTT and 1% DMSO with varying concentrations of compounds. Following 2 h incubation at RT, the AXL, TYRO3 and MER enzymatic reaction was stopped by transfer of 10 μl of reaction into 10 μl of detection mix (400 nM Streptavidin-XL665, 200-fold dilution TK Antibody-Cryptate and detection buffer, HTRF® KinEASE-TK kit, Cisbio) in a white 384-well microplate (Perkin Elmer, OptiPlate 384). After 1 h incubation at RT, the plate was put into a plate reader (Evision) to read at 665/620 nm (acceptor/donor) for HTRF. The value of the DMSO blank (MIN inhibition=100% activity) was used as a negative control. The positive control was established by adding 5 μl of enzyme and DMSO mixture into 10 μl of detection mix followed by addition of 5 μl of TK Substrate-biotin and ATP mixture (MAX inhibition=0% activity). To calculate the percent activity, Equation 1 was used. Ratio665/620 is the value at a given compound concentration: […]
On the technique in general: TR-FRET usually uses a lanthanide donor and a delayed reading to cut background.

Another assay deals with T2, recombinant human TYRO3 (Homo sapiens, UniProt Q06418).
T2 construct: purchased Invitrogen
T2 sequence (Q06418 41-890): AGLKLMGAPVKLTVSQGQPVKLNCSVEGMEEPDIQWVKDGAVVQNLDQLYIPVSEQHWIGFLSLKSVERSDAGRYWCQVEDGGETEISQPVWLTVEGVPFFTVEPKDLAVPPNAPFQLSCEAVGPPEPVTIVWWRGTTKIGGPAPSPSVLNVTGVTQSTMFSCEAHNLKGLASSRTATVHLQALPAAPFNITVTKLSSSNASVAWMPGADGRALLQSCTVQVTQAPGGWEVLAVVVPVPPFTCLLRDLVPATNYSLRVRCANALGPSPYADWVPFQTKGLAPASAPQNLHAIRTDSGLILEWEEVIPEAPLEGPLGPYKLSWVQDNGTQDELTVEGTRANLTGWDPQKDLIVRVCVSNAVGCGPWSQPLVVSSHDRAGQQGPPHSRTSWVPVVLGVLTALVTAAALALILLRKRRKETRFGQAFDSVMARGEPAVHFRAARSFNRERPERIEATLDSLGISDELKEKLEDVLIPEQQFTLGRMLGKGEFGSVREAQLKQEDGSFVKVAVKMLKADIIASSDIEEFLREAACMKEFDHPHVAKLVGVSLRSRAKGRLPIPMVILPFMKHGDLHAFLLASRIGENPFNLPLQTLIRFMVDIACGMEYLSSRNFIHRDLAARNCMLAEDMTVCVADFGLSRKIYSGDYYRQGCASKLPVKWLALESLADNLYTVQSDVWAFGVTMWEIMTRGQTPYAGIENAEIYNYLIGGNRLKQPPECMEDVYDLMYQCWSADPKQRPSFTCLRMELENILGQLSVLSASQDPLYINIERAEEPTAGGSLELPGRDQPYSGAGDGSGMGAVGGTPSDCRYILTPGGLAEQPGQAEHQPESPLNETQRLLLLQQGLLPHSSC
As to the kind of experiment: HTRF KinEASE-TK biochemical potency, TYRO3. The conditions noted are these: 1 nM TYRO3, 700 μM ATP. On the procedure:
as §1

Structures are written as SMILES.

Usually IC50 stands for the concentration needed to halve the response being measured. For the compound `CC(C)C(=O)N1CCc2ccc(-c3cnc4[nH]nc(-c5ccc6c(c5)OCCNC6=O)c4c3)cc2CC1` [Example 16, 8-{5-[3-(2-Methylpropanoyl)-2,3,4,5-tetrahydro-1H-3-benzazepin-7-yl]-1H-pyrazolo[3,4-b]pyridin-3-yl}-2,3,4,5-tetrahydro-1,4-benzoxazepin-5-one], the half-maximal inhibitory concentration (IC50) at recombinant human MER is 100 to 1000 nM; on recombinant human TYRO3, under 100 nM.
As to `O=C1NCCOc2cc(-c3n[nH]c4ncc(-c5ccc6c(c5)CCN(C(=O)C5CC5)CC6)cc34)ccc21` [Example 17, 8-[5-(3-Cyclopropanecarbonyl-2,3,4,5-tetrahydro-1H-3-benzazepin-7-yl)-1H-pyrazolo[3,4-b]pyridin-3-yl]-2,3,4,5-tetrahydro-1,4-benzoxazepin-5-one], the 50% inhibitory concentration (IC50) at recombinant human MER and on recombinant human TYRO3 was under 100 nM each time.
For `CC(C)(O)C(=O)N1CCc2ccc(-c3cnc4[nH]nc(-c5ccc6c(c5)OCCNC6=O)c4c3)cc2CC1` [Example 19, 8-(5-(3-(2-Hydroxy-2-methylpropanoyl)-2,3,4,5-tetrahydro-1H-benzo[d]azepin-7-yl)-1H-pyrazolo[3,4-b]pyridin-3-yl)-3,4-dihydrobenzo[f][1,4]oxazepin-5(2H)-one], the IC50 on recombinant human MER was 100 to 1000 nM; at recombinant human TYRO3 it was under 100 nM.
On the same counts, the results for `O=C1NCCOc2cc(-c3n[nH]c4ncc(-c5ccc6c(c5)CCN(C5CC5)CC6)cc34)ccc21` [Example 20, 8-(5-(3-Cyclopropyl-2,3,4,5-tetrahydro-1H-benzo[d]azepin-7-yl)-1H-pyrazolo[3,4-b]pyridin-3-yl)-3,4-dihydrobenzo[f][1,4]oxazepin-5(2H)-one] are 100 to 1000 nM and under 100 nM.
For `O=C1NCCOc2cc(-c3n[nH]c4ncc(-c5ccc6c(c5)CCN(C5CC5)C6)cc34)ccc21` [Example 21, 8-(5-(2-Cyclopropyl-1,2,3,4-tetrahydroisoquinolin-6-yl)-1H-pyrazolo[3,4-b]pyridin-3-yl)-3,4-dihydrobenzo[f][1,4]oxazepin-5(2H)-one], the 50% inhibitory concentration (IC50) at recombinant human MER and at recombinant human TYRO3 was 100 to 1000 nM throughout.
As for `CC1(N2CCCC2)CCc2ccc(-c3cnc4[nH]nc(-c5ccc6c(c5)OCCNC6=O)c4c3)cc2CC1` (stereo not shown) [Example 22, 8-{5-[7-Methyl-7-(pyrrolidin-1-yl)-6,7,8,9-tetrahydro-5H-benzo[7]annulen-2-yl]-1H-pyrazolo[3,4-b]pyridin-3-yl}-2,3,4,5-tetrahydro-1,4-benzoxazepin-5-one], the half-inhibitory concentration (IC50) at recombinant human MER and on recombinant human TYRO3 was under 100 nM in each case.
Regarding `C[C@@H]1CCCN1C1(C)CCc2ccc(-c3cnc4[nH]nc(-c5ccc6c(c5)OCCNC6=O)c4c3)cc2CC1` (stereo partly drawn) [Example 23, 8-(5-{7-Methyl-7-[(2R)-2-methylpyrrolidin-1-yl]-6,7,8,9-tetrahydro-5H-benzo[7]annulen-2-yl}-1H-pyrazolo[3,4-b]pyridin-3-yl)-2,3,4,5-tetrahydro-1,4-benzoxazepin-5-one], the IC50 on recombinant human MER and on recombinant human TYRO3 was under 100 nM in each case.
On to `C[C@H]1CCCN1C1(C)CCc2ccc(-c3cnc4[nH]nc(-c5ccc6c(c5)OCCNC6=O)c4c3)cc2CC1` (stereo partly drawn) [Example 24, 8-(5-{7-Methyl-7-[(2S)-2-methylpyrrolidin-1-yl]-6,7,8,9-tetrahydro-5H-benzo[7]annulen-2-yl}-1H-pyrazolo[3,4-b]pyridin-3-yl)-2,3,4,5-tetrahydro-1,4-benzoxazepin-5-one], for which the IC50 at recombinant human MER and at recombinant human TYRO3 was under 100 nM throughout.
Take `CC[C@@H]1CCCN1C1CCc2ccc(-c3cnc4[nH]nc(-c5ccc6c(c5)OCCNC6=O)c4c3)cc2CC1` (stereo partly drawn) [Example 25, 8-(5-{7-[(2R)-2-Ethylpyrrolidin-1-yl]-6,7,8,9-tetrahydro-5H-benzo[7]annulen-2-yl}-1H-pyrazolo[3,4-b]pyridin-3-yl)-2,3,4,5-tetrahydro-1,4-benzoxazepin-5-one]: the half-inhibitory concentration (IC50) at recombinant human MER and on recombinant human TYRO3 was under 100 nM throughout.
Turning to `CC1(O)CCOc2cc(-c3n[nH]c4ncc(-c5ccc6c(c5)CCN(C5CCCC5)CC6)cc34)ccc21` (stereo not shown) [Example 26, 7-[5-(3-Cyclopentyl-2,3,4,5-tetrahydro-1H-3-benzazepin-7-yl)-1H-pyrazolo[3,4-b]pyridin-3-yl]-4-methyl-3,4-dihydro-2H-1-benzopyran-4-ol], the IC50 on recombinant human MER is 100 to 1000 nM; on recombinant human TYRO3 it was under 100 nM.
On to `CC1(O)CCCCc2cc(-c3n[nH]c4ncc(-c5ccc6c(c5)CCN(C5CCCC5)CC6)cc34)ccc21` (stereo not shown) [Example 27, 2-[5-(3-Cyclopentyl-2,3,4,5-tetrahydro-1H-3-benzazepin-7-yl)-1H-pyrazolo[3,4-b]pyridin-3-yl]-5-methyl-6,7,8,9-tetrahydro-5H-benzo[7]annulen-5-ol], for which the IC50 is over 1000 nM on recombinant human MER and 100 to 1000 nM on recombinant human TYRO3.
In the case of `CC1(O)CCCOc2cc(-c3n[nH]c4ncc(-c5ccc6c(c5)CCN(C5CCCC5)CC6)cc34)ccc21` (stereo not shown) [Example 28, (8-[5-(3-Cyclopentyl-2,3,4,5-tetrahydro-1H-3-benzazepin-7-yl)-1H-pyrazolo[3,4-b]pyridin-3-yl]-5-methyl-2,3,4,5-tetrahydro-1-benzoxepin-5-ol)], the IC50 on recombinant human MER and at recombinant human TYRO3 was 100 to 1000 nM each time.
Regarding `C[C@@H]1CCCN1C1CCc2ccc(-c3cnc4[nH]nc(-c5ccc6c(c5)OCCC6(C)O)c4c3)cc2CC1` (stereo partly drawn) [Example 29, 4-Methyl-7-(5-{7-[(2R)-2-Methylpyrrolidin-1-yl]-6,7,8,9-tetrahydro-5H-benzo[7]annulen-2-yl}-1H-pyrazolo[3,4-b]pyridin-3-yl)-3,4-dihydro-2H-1-benzopyran-4-ol], the values for the half-maximal inhibitory concentration (IC50) on recombinant human MER and on recombinant human TYRO3 were 100 to 1000 nM and under 100 nM, respectively.
On the same counts, the results for `CC1(O)CCc2cc(-c3n[nH]c4ncc(-c5ccc6c(c5)CC[C@@H](N5CCCC5)CC6)cc34)ccc21` (stereo partly drawn) [Example 30, 1-Methyl-5-{5-[(7S)-7-(pyrrolidin-1-yl)-6,7,8,9-tetrahydro-5H-benzo[7]annulen-2-yl]-1H-pyrazolo[3,4-b]pyridin-3-yl}-2,3-dihydro-1H-inden-1-ol] are 100 to 1000 nM and under 100 nM.
